Drawing on PubChem BioAssay (NCI), this text covers TGI for seven molecules.

SMILES strings stand for the structures.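 Five concentrations, 48 hours, 96-well plates. The concentration for full growth arrest is given as TGI.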

Some test systems named below: A549 NSCLC; DU-145 prostate; HL-60(TB) leukemia; HOP-62 NSCLC; HOP-92 NSCLC; HT29 colon; MDA-N; MOLT-4 leukemia; NCI-H460 lung; NCI/ADR-RES ovarian; OVCAR-3 ovarian; SF-295 CNS; SN12C renal; SNB-19 CNS; SNB-75 CNS; UO-31 renal; BT-549 breast; CCRF-CEM leukemia; RPMI-8226 leukemia; SR leukemia.
Test in all cases: NCI-60 cell line screen, 48 h

On to `CC(C)Oc1c(O)c2c3c(oc(=O)n3C=CC2c2ccccc2)c1OC(C)C` (stereo not given), for which the TGI was 92.1 µM in the test on A549 NSCLC; above 100 µM in the test with DU-145 prostate; 91.4 µM with HL-60(TB) leukemia; above 100 µM in the test with HOP-62 NSCLC; above 100 µM with HOP-92 NSCLC; 77.4 µM in the test on HT29 colon. The TGI is above 100 µM in the test with MDA-N; above 100 µM with MOLT-4 leukemia; 35.1 µM in the test with NCI-H460 lung; above 100 µM in the test with NCI/ADR-RES ovarian; 80.5 µM with OVCAR-3 ovarian; 49.1 µM with SF-295 CNS. In addition, the TGI in the test on SN12C renal was above 100 µM; in the test on SNB-19 CNS it was above 100 µM; with SNB-75 CNS, 53.2 µM; in the test on UO-31 renal it was 37.2 µM.

With `COC(=O)C1=C(C)NC(C)=C(C(=O)OC)C1c1ccccc1NO`, the TGI in the test with A549 NSCLC, in the test with BT-549 breast, with CCRF-CEM leukemia, in the test on DU-145 prostate, in the test on HL-60(TB) leukemia and in the test with HOP-62 NSCLC was above 100 µM throughout. Further, the TGI with HOP-92 NSCLC, with HT29 colon, in the test on MOLT-4 leukemia, in the test on NCI-H460 lung, in the test on NCI/ADR-RES ovarian and with OVCAR-3 ovarian was above 100 µM in each case. Moreover, the TGI in the test on RPMI-8226 leukemia, in the test on SF-295 CNS, in the test with SN12C renal, with SNB-19 CNS, in the test on SR leukemia and in the test with UO-31 renal was above 100 µM throughout.

For the molecule `COc1ccc(CCCCl)c(C2=NCCc3cc(OC)c(OC)cc32)c1`, the TGI in the test on A549 NSCLC, in the test on BT-549 breast, in the test with CCRF-CEM leukemia, in the test on DU-145 prostate, in the test on HL-60(TB) leukemia and in the test on HOP-62 NSCLC was above 100 µM throughout. Also, the TGI with HOP-92 NSCLC, with HT29 colon, with MOLT-4 leukemia, in the test on NCI-H460 lung, in the test with NCI/ADR-RES ovarian and in the test with OVCAR-3 ovarian was above 100 µM throughout. The TGI in the test on RPMI-8226 leukemia was 28.5 µM; in the test with SF-295 CNS, above 100 µM; in the test with SN12C renal it was above 100 µM; in the test with SNB-19 CNS it was above 100 µM; with SNB-75 CNS it was above 100 µM; with SR leukemia it was above 100 µM. This molecule also gave a TGI in the test on UO-31 renal above 100 µM.

`CN(C)c1ccc(/C=C/C(=O)CC(=O)/C=C/c2ccc(N(C)C)cc2)cc1`: the TGI in the test on A549 NSCLC, with CCRF-CEM leukemia, in the test with DU-145 prostate, in the test with HL-60(TB) leukemia, in the test with HOP-62 NSCLC and with HT29 colon was above 100 µM in each case. The TGI in the test on MDA-N, with MOLT-4 leukemia, in the test with NCI-H460 lung, with NCI/ADR-RES ovarian, with OVCAR-3 ovarian and in the test with RPMI-8226 leukemia was above 100 µM throughout. Further, the TGI in the test on SF-295 CNS was above 100 µM; with SN12C renal it was above 100 µM; in the test on SNB-19 CNS, above 100 µM; in the test on SNB-75 CNS it was above 100 µM; with SR leukemia, 76.7 µM; with UO-31 renal it was above 100 µM.

Take `O=c1[nH]nc(-c2ccccc2)n1Nc1ccccc1`: the TGI with A549 NSCLC, in the test on CCRF-CEM leukemia, with DU-145 prostate, in the test with HL-60(TB) leukemia, in the test on HOP-92 NSCLC and in the test on HT29 colon was above 100 µM in each case. Besides, the TGI in the test on MDA-N, with MOLT-4 leukemia, in the test with NCI-H460 lung, with NCI/ADR-RES ovarian, in the test with OVCAR-3 ovarian and in the test on RPMI-8226 leukemia was above 100 µM in each case. Moreover, the TGI with SF-295 CNS, in the test on SN12C renal, in the test with SNB-19 CNS, with SNB-75 CNS, in the test with SR leukemia and in the test on UO-31 renal was above 100 µM throughout.

`c1cncc(C2(c3cc4ccccc4[nH]3)COCO2)c1` (stereo not given): the TGI with A549 NSCLC is above 100 µM; with BT-549 breast it was above 100 µM; with CCRF-CEM leukemia it was 56.6 µM; with DU-145 prostate, above 100 µM; with HL-60(TB) leukemia, above 100 µM; with HOP-62 NSCLC, above 100 µM. The TGI in the test on HOP-92 NSCLC, in the test with HT29 colon, in the test with MOLT-4 leukemia, in the test with NCI-H460 lung, in the test on NCI/ADR-RES ovarian and in the test on OVCAR-3 ovarian was above 100 µM in each case. The TGI in the test on RPMI-8226 leukemia, in the test on SF-295 CNS, in the test on SNB-19 CNS, in the test with SNB-75 CNS, in the test with SR leukemia and with UO-31 renal was above 100 µM each time.

Turning to `CCc1cc2c(c3c1CCC3=O)CC1(Cc3ccc(C)cc3C1)C2` (stereo not given), the TGI with A549 NSCLC is 40.8 µM; with CCRF-CEM leukemia, 34.7 µM; in the test with HL-60(TB) leukemia, 41 µM; in the test on HOP-62 NSCLC, above 100 µM; in the test with HOP-92 NSCLC, 62.8 µM; in the test on HT29 colon, 46.9 µM. The TGI in the test with MDA-N was above 100 µM; in the test on MOLT-4 leukemia it was 68.7 µM; in the test on NCI/ADR-RES ovarian it was above 100 µM; in the test on OVCAR-3 ovarian, above 100 µM; in the test with RPMI-8226 leukemia it was 94.8 µM; with SF-295 CNS, above 100 µM. The TGI in the test on SN12C renal was above 100 µM.
